“Also recorded” adds a separate entry of the source.
Columns and labels:
[1] = tested on: six to eight cultured tumor cell lines; assay: In vitro cytotoxicity against the panel of tumor lines (overall activity grouping); format: cell-based, human and/or animal; conditions: for anti-tumor activity (in words): summary over the tumor lines; for change in activity relative to Tx-37 (in words): structural modification of Tx-37; for change in activity relative to Tx-38 (in words): structural modification of Tx-38; for activity group: grouped as determined by the majority of the results over all tumor lines
Experimental: (§1) Every dibenzofluorene derivative was tested, as will be described below, against six to eight cultured, tumor cell lines of human and/or animal origin, at least half of which were selected from the NCI panel of test tumors. In each experiment, Adriamycin (ADR) was used as a maximally positive control.
(§2) Data are IC50 values (MTT assay) reported as μg/ml for 72 hours continuous exposure to the drug. Drugs were prepared in DMSO:PEG300 (1:1). Further, dilutions were made in a cell culture medium with fetal bovine serum.
Additional tumor lines against which the drugs were tested in certain series included L1210 (leukemia), PC3 (prostate) and several others.
(§3) Compounds were evaluated for solubility characteristics in vehicles which would be appropriate for use in cell culture. The compounds were added to the cell lines under continuous culture for 72 hours. Inhibition of growth relative to control cell culture was determined by the MTT method at the end of 72 hours. This is a test of the relative ability of a compound to inhibit cell growth not survival. However, inhibition of growth may reflect cell death and/or cytostasis.
ADR invariably produced the described anti-tumor effect against all tumor lines at concentrations lower than 1 μg/ml of culture media. The effect of the Tx-compounds was divided into five activity groups as described below. In all cases, if activity against a single tumor line differed radically from that against all others, notation was made of this specificity but the agent was grouped as determined by the majority of the results.

[2] = tested on: OVCAR 3 human ovarian carcinoma; assay: In vitro cytotoxicity, MTT assay, 72 h continuous exposure; format: cell-based; conditions: average over runs, value above 50 = 50% inhibition not achieved at 50 μg/ml
Experimental: as §1, §2, §3

[3] = tested on: MCF-7 human breast carcinoma; assay: as above; format: cell-based; conditions: average over runs, value above 50 = 50% inhibition not achieved at 50 μg/ml
Experimental: as §1, §2, §3

[4] = tested on: P388/0 murine lymphatic leukemia; assay: as above; format: cell-based; conditions: average over runs, value above 50 = 50% inhibition not achieved at 50 μg/ml
Experimental: as §1, §2, §3

BRO human melanoma = assay: as above; format: cell-based; conditions: average over runs, value above 50 = 50% inhibition not achieved at 50 μg/ml
Experimental: as §1, §2, §3

[5] = tested on: HT-29 human colon adenocarcinoma; assay: as above; format: cell-based; conditions: average over runs, value above 50 = 50% inhibition not achieved at 50 μg/ml
Experimental: as §1, §2, §3

[6] = tested on: HL-60 human promyelocytic leukemia; assay: as above; format: cell-based; conditions: average over runs, value above 50 = 50% inhibition not achieved at 50 μg/ml
Experimental: as §1, §2, §3

| Structure (SMILES) | anti-tumor activity (in words) [1] | average IC50 OVCAR-3 [2] [µg/mL] | average IC50 MCF-7 [3] [µg/mL] | average IC50 P388/0 [4] [µg/mL] | average IC50 BRO (BRO human melanoma) [µg/mL] | average IC50 HT-29 [5] [µg/mL] | average IC50 HL-60 [6] [µg/mL] | change in activity relative to Tx-37 (in words) [1] | change in activity relative to Tx-38 (in words) [1] | activity group [1] | IC50 ([1]; Homo sapiens, all tumor lines, μg/ml of culture media, positive control, read-out: concentration producing the described anti-tumor effect against all tumor lines) [µg/mL] |
| --- | --- | --- | --- | --- | --- | --- | --- | --- | --- | --- | --- |
| CN1CCN(C(=O)CCC(=O)Nc2cc3c(c4ccccc24)-c2ccc4ccccc4c2C3)CC1 [Tx-37, N-[11′-(13′H-Dibenzo[a,g]-fluorenyl)]-4-(4′N methyl-piperazinyl)-butane-1,4-dicarboxiamide] | consistent, highly positive effects; also recorded: most active compound; also recorded: significant activities | 1.9 | 3.0 | 2.0 | 1.8 | 1.9 | 1.6 | – | – | – | – |
| CN1CCN(C(=O)CCC(=O)Nc2cc3c(c4ccccc24)-c2ccc4ccccc4c2C3O)CC1 (centres unmarked) [Tx-66] | – | 4.2 | 5.9 | 2.1 | 6.0 | – | 2.0 | minor change in the activity | – | – | – |
| CN1CCN(C(=O)CCC(=O)Nc2cc3c(c4ccccc24)-c2ccc4ccccc4c2C3=O)CC1 [Tx-50] | significant activities | 6.6 | 18.1 | 3.7 | 11.2 | 10.0 | 4.0 | slight diminution in activity | – | – | – |
| O=C(CCC(=O)N1CCCCC1)Nc1cc2c(c3ccccc13)-c1ccc3ccccc3c1C2O (centres unmarked) [Tx-67] | – | 8.8 | 8.9 | 9.2 | 14.7 | – | 5.6 | – | greatly increased the activity | – | – |
| O=C(CCC(=O)N1CCCCC1)Nc1cc2c(c3ccccc13)-c1ccc3ccccc3c1C2=O [Tx-51] | little or no activity | 16.2 | 27.0 | – | 47.2 | – | 32.0 | – | – | – | – |
| O=C(CCC(=O)N1CCCCC1)Nc1cc2c(c3ccccc13)-c1ccc3ccccc3c1C2 [Tx-38] | no significant anti-tumor activity; also recorded: little or no activity | 39.5 | 22.8 | 42.9 | 46.4 | 34.4 | 14.9 | – | – | – | – |
| CN1CCN(C(=O)CCC(=O)Nc2cc3c(c4ccccc24)-c2ccc4ccccc4c2C3)CC1.Cl [Tx-49, N-[11′-(13′H-Dibenzo[a,g]-fluorenyl)]-4-(4′N methyl-piperazinyl hydrochloride)-butane-1,4-dicarboxiamide] | – | 2.8 | 5.7 | 3.1 | 2.5 | 2.5 | 2.5 | minor change in the activity | – | – | – |
| CN1CCN(C(=O)C=CC(=O)Nc2cc3c(c4ccccc24)-c2ccc4ccccc4c2C3)CC1 [Tx-47] | – | 1.1 | 20.2 | 15.4 | 1.2 | 16.7 | 1.2 | reduced its activity significantly | – | GROUP C (These agents were effective against one-third to one-half of all tumor lines tested at levels less than 10 μg/ml) | – |
| O=C(CCC(=O)N1CCCCC1)Nc1ccc2c(c1)Cc1ccccc1-2 [Tx-69] | – | – | 28.9 | 41.5 | – | – | – | – | – | – | – |
| CN1CCN(C(=O)CCC(=O)Nc2ccc3c(c2)Cc2ccccc2-3)CC1 [Tx-68, N-[2′-(9′H-fluorenyl)]-4-(4′N methyl-piperazinyl)-butane-1,4-dicarboxiamide] | – | 31.7 | 18.2 | – | – | – | – | – | – | GROUP E (These agents produced some anti-tumor effect at doses above 10 μg/ml but less than 20 μg/ml) | – |
| O=C(C=CC(=O)N1CCCCC1)Nc1cc2c(c3ccccc13)-c1ccc3ccccc3c1C2 [Tx-48, N-[11′-13′H-Dibenzo[a,g]-fluorenyl]-4-(1′-piperidinyl)-but-2-ene-1,4-dicarboxiamide] | – | 23.4 | 18.3 | – | 22.6 | – | 30.1 | – | little or no change | – | – |
| COc1cccc2c1C(=O)c1c(O)c3c(c(O)c1C2=O)C[C@@](O)(C(=O)CO)C[C@@H]3O[C@H]1C[C@H](N)[C@H](O)[C@H](C)O1 [ADR, Adriamycin, reference compound] | – | – | – | – | – | – | – | – | – | – | < 1 |

Source: patent US6479662B2, “Antitumor dibenzofluorene derivatives” (Board of Regents, The University of Texas System, priority 1998, dated 2002)
